Source: patent US8796466B2, “Hepatitis C virus inhibitors” (Bristol-Myers Squibb Company, priority 2009, dated 2014)
Like-named read-outs stand apart in the source and are kept apart here.

Test system: HCV 1b genotype
Assay: HCV Replicon assay (HCV 1b genotype)
Type: cell-based, Hepatitis C virus
Details: Hepatitis C virus, HCV 1b genotype replicon
Procedure: An HCV Replicon assay was utilized in the present disclosure, and was prepared, conducted and validated as described in commonly owned PCT/US2006/022197 and in O'Boyle et. al. Antimicrob Agents Chemother. 2005 April; 49(4):1346-53. Assay methods incorporating luciferase reporters have also been used as described (Apath.com).
HCV-neo replicon cells and replicon cells containing mutations in the NS5A region were used to test the currently described family of compounds. The compounds were determined to have more than 10-fold less inhibitory activity on cells containing mutations than wild-type cells. Thus, the compounds of the present disclosure can be effective in inhibiting the function of the HCV NS5A protein and are understood to be as effective in combinations as previously described in application PCT/US2006/022197 and commonly owned WO/04014852. Further, the compounds of the present disclosure can be effective against the HCV 1b genotype. It should also be understood that the compounds of the present disclosure can inhibit multiple genotypes of HCV. […] In one embodiment, compounds of the present disclosure are inhibitory versus 1a, 1b, 2a, 2b, 3a, 4a, and 5a genotypes.

[1] = class symbol, read-out: Range (EC50 values against HCV 1b)
[2] = Effective 50% inhibitory concentration, read-out: 1b EC50

Structure (SMILES) | EC50 [1] [nM] | EC50 [2] [nM]
COC(=O)N[C@H](C(=O)N1CCOCC1c1ncc(-c2ccc(C#Cc3ccc(-c4cnc(C5COCCN5C(=O)[C@@H](NC(=O)OC)C(C)C)[nH]4)cc3)cc2)[nH]1)C(C)C (stereo in doubt) [Example N5, methyl ((1S)-1-(((3S)-3-(4-(4-((4-(2-((3S)-4-((2S)-2-((methoxycarbonyl)amino)-3-methylbutanoyl)-3-morpholinyl)-1H-imidazol-4-yl)phenyl)ethynyl)phenyl)-1H-imidazol-2-yl)-4-morpholinyl)carbonyl)-2-methylpropyl)carbamate] | 0.002 to 0.099 | 
COC(=O)N[C@@H](C(=O)N1CCC[C@H]1c1nc(-c2ccc(-c3ccc(-c4ccc(-c5c[nH]c([C@@H]6CCCN6C(=O)[C@H](NC(=O)OC)c6ccccc6)n5)cc4)cc3)cc2)c[nH]1)c1ccccc1 [Example D-1, dimethyl (1,1′:4′,1″-terphenyl-4,4″-diylbis(1H-imidazole-4,2-diyl(2S)-2,1-pyrrolidinediyl((1R)-2-oxo-1-phenyl-2,1-ethanediyl)))biscarbamate] | 0.002 to 0.099 | 
CN(C)[C@@H](C(=O)N1CCC[C@H]1c1nc(-c2ccc(-c3ccc(-c4ccc(-c5c[nH]c([C@@H]6CCCN6C(=O)[C@@H](c6ccccc6)N(C)C)n5)cc4)cc3)cc2)c[nH]1)c1ccccc1 [Example D-2, (1R)-2-((2S)-2-(4-(4″-(2-((2S)-1-((2R)-2-(dimethylamino)-2-phenylacetyl)-2-pyrrolidinyl)-1H-imidazol-5-yl)-1,1′:4′,1″-terphenyl-4-yl)-1H-imidazol-2-yl)-1-pyrrolidinyl)-N,N-dimethyl-2-oxo-1-phenylethanamine] | 0.1 to 0.99 | 
COC(=O)N[C@H](C(=O)N1CCC[C@H]1c1ncc(-c2ccc(C#Cc3ccc4c(c3)CCc3nc([C@@H]5CCCN5C(=O)[C@@H](NC(=O)OC)C(C)C)[nH]c3-4)cc2)[nH]1)C(C)C [Example D-3, methyl ((1S)-1-(((2S)-2-(4-(4-((2-((2S)-1-((2S)-2-((methoxycarbonyl)amino)-3-methylbutanoyl)-2-pyrrolidinyl)-4,5-dihydro-1H-naphtho[1,2-d]imidazol-7-yl)ethynyl)phenyl)-1H-imidazol-2-yl)-1-pyrrolidinyl)carbonyl)-2-methylpropyl)carbamate] | 0.002 to 0.099 | 0.006
COC(=O)N[C@@H](C(=O)N1CCC[C@H]1c1ncc(-c2ccc(C#Cc3ccc4c(c3)CCc3nc([C@@H]5CCCN5C(=O)[C@H](NC(=O)OC)c5ccccc5)[nH]c3-4)cc2)[nH]1)c1ccccc1 [Example D-4, methyl ((1R)-2-((2S)-2-(4-(4-((2-((2S)-1-((2R)-2-((methoxycarbonyl)amino)-2-phenylacetyl)-2-pyrrolidinyl)-4,5-dihydro-1H-naphtho[1,2-d]imidazol-7-yl)ethynyl)phenyl)-1H-imidazol-2-yl)-1-pyrrolidinyl)-2-oxo-1-phenylethyl)carbamate] | 0.002 to 0.099 | 
COC(=O)N[C@@H](C(=O)N1CCC[C@H]1c1ncc(-c2ccc(C#Cc3ccc4c(ccc5nc([C@@H]6CCCN6C(=O)[C@H](NC(=O)OC)c6ccccc6)[nH]c54)c3)cc2)[nH]1)c1ccccc1 [Example D-5, methyl ((1R)-2-((2S)-2-(7-((4-(2-((2S)-1-((2R)-2-((methoxycarbonyl)amino)-2-phenylacetyl)-2-pyrrolidinyl)-1H-imidazol-4-yl)phenyl)ethynyl)-1H-naphtho[1,2-d]imidazol-2-yl)-1-pyrrolidinyl)-2-oxo-1-phenylethyl)carbamate] | 0.002 to 0.099 | 
COC(=O)N[C@H](C(=O)N1CCC[C@H]1c1ncc(-c2ccc(C#Cc3ccc4c(ccc5nc([C@@H]6CCCN6C(=O)[C@@H](NC(=O)OC)C(C)C)[nH]c54)c3)cc2)[nH]1)C(C)C [Example D-6, methyl ((1S)-1-(((2S)-2-(4-(4-((2-((2S)-1-((2S)-2-((methoxycarbonyl)amino)-3-methylbutanoyl)-2-pyrrolidinyl)-1H-naphtho[1,2-d]imidazol-7-yl)ethynyl)phenyl)-1H-imidazol-2-yl)-1-pyrrolidinyl)carbonyl)-2-methylpropyl)carbamate] | 0.002 to 0.099 | 
COC(=O)N[C@H](C(=O)N1[C@@H]2C[C@@H]2C[C@H]1c1ncc(-c2ccc(C#Cc3ccc4c(ccc5nc([C@@H]6C[C@H]7C[C@H]7N6C(=O)[C@@H](NC(=O)OC)C(C)C)[nH]c54)c3)cc2)[nH]1)C(C)C [Example D-7, methyl ((1S)-1-(((1R,3S,5R)-3-(4-(4-((2-((1R,3S,5R)-2-((2S)-2-((methoxycarbonyl)amino)-3-methylbutanoyl)-2-azabicyclo[3.1.0]hex-3-yl)-1H-naphtho[1,2-d]imidazol-7-yl)ethynyl)phenyl)-1H-imidazol-2-yl)-2-azabicyclo[3.1.0]hex-2-yl)carbonyl)-2-methylpropyl)carbamate] | 0.002 to 0.099 | 
COC(=O)N[C@@H](C(=O)N1[C@@H]2C[C@@H]2C[C@H]1c1ncc(-c2ccc(C#Cc3ccc4c(ccc5nc([C@@H]6C[C@H]7C[C@H]7N6C(=O)[C@H](NC(=O)OC)c6ccccc6)[nH]c54)c3)cc2)[nH]1)c1ccccc1 [Example D-8, methyl ((1R)-2-((1R,3S,5R)-3-(7-((4-(2-((1R,3S,5R)-2-((2R)-2-((methoxycarbonyl)amino)-2-phenylacetyl)-2-azabicyclo[3.1.0]hex-3-yl)-1H-imidazol-4-yl)phenyl)ethynyl)-1H-naphtho[1,2-d]imidazol-2-yl)-2-azabicyclo[3.1.0]hex-2-yl)-2-oxo-1-phenylethyl)carbamate] | 0.002 to 0.099 | 0.005
COC(=O)N[C@H](C(=O)N1[C@@H]2C[C@@H]2C[C@H]1c1nc2c([nH]1)-c1ccc(C#Cc3ccc4c(c3)CCc3nc([C@@H]5C[C@H]6C[C@H]6N5C(=O)[C@@H](NC(=O)OC)C(C)C)[nH]c3-4)cc1CC2)C(C)C [Example D-9, methyl ((1S)-1-(((1R,3S,5R)-3-(7-((2-((1R,3S,5R)-2-((2S)-2-((methoxycarbonyl)amino)-3-methylbutanoyl)-2-azabicyclo[3.1.0]hex-3-yl)-4,5-dihydro-1H-naphtho[1,2-d]imidazol-7-yl)ethynyl)-4,5-dihydro-1H-naphtho[1,2-d]imidazol-2-yl)-2-azabicyclo[3.1.0]hex-2-yl)carbonyl)-2-methylpropyl)carbamate] | 0.002 to 0.099 | 
COC(=O)N[C@H](C(=O)N1[C@@H]2C[C@@H]2C[C@H]1c1nc2ccc3cc(C#Cc4ccc5c(ccc6nc([C@@H]7C[C@H]8C[C@H]8N7C(=O)[C@@H](NC(=O)OC)C(C)C)[nH]c65)c4)ccc3c2[nH]1)C(C)C [Example D-10, methyl ((1S)-1-(((1R,3S,5R)-3-(7-((2-((3S)-2-((2S)-2-((methoxycarbonyl)amino)-3-methylbutanoyl)-2-azabicyclo[3.1.0]hex-3-yl)-1H-naphtho[1,2-d]imidazol-7-yl)ethynyl)-1H-naphtho[1,2-d]imidazol-2-yl)-2-azabicyclo[3.1.0]hex-2-yl)carbonyl)-2-methylpropyl)carbamate] | 0.002 to 0.099 | 
COC(=O)N[C@H](C(=O)N1[C@@H]2C[C@@H]2C[C@H]1c1nc2ccc3cc(C#Cc4ccc5c(ccc6nc([C@@H]7C[C@H]8C[C@H]8N7C(=O)[C@@H](NC(=O)OC)C7CCOCC7)[nH]c65)c4)ccc3c2[nH]1)C(C)C [Example D-11, methyl ((1S)-2-((1R,3S,5R)-3-(7-((2-((1R,3S,5R)-2-((2S)-2-((methoxycarbonyl)amino)-3-methylbutanoyl)-2-azabicyclo[3.1.0]hex-3-yl)-1H-naphtho[1,2-d]imidazol-7-yl)ethynyl)-1H-naphtho[1,2-d]imidazol-2-yl)-2-azabicyclo[3.1.0]hex-2-yl)-2-oxo-1-(tetrahydro-2H-pyran-4-yl)ethyl)carbamate] | 0.002 to 0.099 | 
COC(=O)N[C@H](C(=O)N1CCC[C@H]1c1nc(-c2cccc(C#Cc3cccc(-c4c[nH]c([C@@H]5CCCN5C(=O)[C@@H](NC(=O)OC)C(C)C)n4)c3)c2)c[nH]1)C(C)C [Example J1, methyl ((1S)-1-(((2S)-2-(4-(3-((3-(2-((2S)-1-((2S)-2-((methoxycarbonyl)amino)-3-methylbutanoyl)-2-pyrrolidinyl)-1H-imidazol-4-yl)phenyl)ethynyl)phenyl)-1H-imidazol-2-yl)-1-pyrrolidinyl)carbonyl)-2-methylpropyl)carbamate] | 0.002 to 0.099 | 
COC(=O)N[C@H](C(=O)N1CCC[C@H]1c1nc(-c2cccc(C#Cc3cccc(-c4c[nH]c([C@@H]5CCCN5)n4)c3)c2)c[nH]1)C(C)C [Example J1.1, methyl ((1S)-2-methyl-1-(((2S)-2-(4-(3-((3-(2-((2S)-2-pyrrolidinyl)-1H-imidazol-4-yl)phenyl)ethynyl)phenyl)-1H-imidazol-2-yl)-1-pyrrolidinyl)carbonyl)propyl)carbamate] | 10 to 350 | 339
COC(=O)N[C@H](C(=O)N1CCC[C@H]1c1ncc(-c2cccc(C#Cc3cccc(-c4cnc([C@@H]5CCCN5C(=O)[C@@H](NC(=O)OC)C5CCOCC5)[nH]4)c3)c2)[nH]1)C1CCOCC1 [Example J2, dimethyl (1,2-ethynediylbis(3,1-phenylene-1H-imidazole-4,2-diyl(2S)-2,1-pyrrolidinediyl((1S)-2-oxo-1-(tetrahydro-2H-pyran-4-yl)-2,1-ethanediyl)))biscarbamate] | 0.1 to 0.99 | 0.12
